The record followed here is patent US11768156B2, “Methods and compositions for assessing cell viability” (Life Technologies Corporation, priority 2017, dated 2023).

The structures appear in SMILES notation.

Format in all cases: cell-based
In assay [1] the test system is Jurkat cells. Briefly: Flow cytometry of live and heat-treated Jurkat cells stained in PBS or complete media.
The test system of assay [2] is Jurkat cells. Briefly: Flow cytometry of 50% live/50% dead Jurkat cell mixtures fixed with 4% formaldehyde. To be noted: 25 μM dye, PBS or complete media, substantial majority of live cells.
Assay [3] has as its system untreated Jurkat cells. Briefly: Flow cytometry of untreated Jurkat cells in PBS or complete media. To be noted: 25 μM, five minutes, PBS and complete media. The procedure:
Populations of untreated Jurkat cells in either PBS or complete media were incubated with 25 μM Compound 2 for five minutes and analyzed by flow cytometry. Results are shown in FIGS. 4A-4B (PBS and complete media, respectively).

In assay [4] the test system is Jurkat cells. The assay is described as follows: Flow cytometry of 50% live/50% dead Jurkat cell mixtures, fixed and permeabilized.
For assay [5], the system named is Jurkat cells.

Take `N=c1ccc2c(-c3ccc(C(=O)NCCCCCNC(=O)CCCc4ccc(N(CCCl)CCCl)cc4)cc3C(=O)O)c3ccc(N)c(S(=O)(=O)O)c3oc-2c1S(=O)(=O)O` [Compound 2]: the “variation in intensity of staining due to the presence of complete media” value in assay [1] (25 μM dye, PBS versus complete media) is “little to no variation in intensity of staining”. The “separation of live and dead cells in histograms” value in assay [1] (25 μM dye, stained in PBS and in complete media (RPMI+10FBS), 488 nm excitation, 530/30 nm emission) was “clear separation of live and dead cells”. In assay [1] (live and dead cell peaks, media and PBS), the “histogram peaks for staining in media versus in PBS (FIGS. 1B, 1C)” value was “overlap”. The “separation of live cells from dead cells” value in assay [2] was “two logs of separation”. For the same compound, the “strongly labeled peaks corresponding to dead cells” value in assay [3] is on record as 7-14 % of total cells. Also, the “separation of live cells from dead cells” value in assay [4] (fixed and permeabilized, 25 μM dye, PBS or complete media, substantial majority of live cells) is “two logs of separation”. Also, the “histogram peaks for staining in media versus in PBS (FIGS. 3A, 3B)” value in assay [4] (fixed, permeabilized cells) is given as “mostly or partially overlap”. Moreover, in assay [5], the “difference of unstained control from live cell peaks, peak to peak” value is 1-1.5 logs; the “separation of dead cell peaks from the live cell peaks” value is “good separation”; the “separation of dead cells from live cells, peak to peak” value is reported as “over 2 logs”; the “staining of live cells (versus unstained control)” value is listed as “negligible”.
